Measurements published in article PMC3867523 (Journal of hepatology, 2013).
Ends that are not written are not given here.

Biological target: HLA-B*27:05 (Homo sapiens, UniProt P01889, D138H/D201E/E176V/E204Q/G107R/H137Y/K202T/N104T/N87E/Q56L/Q94K/R106L/R155S/R180L/S101D/S121N/S48T/Y140D/Y33H/Y91C)
Assay: biochemical
Assay type: binding

Sequence | IC50 [nM]
ARHTPVNSW [NS5B-2820] | 338
ARMILMTHF [NS5B-2841] | 1.1
GRAAICGKY [NS5B-2936] | 1
